{"source": "patent US9302014B2", "about": "“Cell-penetrating peptides having a central hydrophobic domain” (Medical Research Council, priority 2011, dated 2016)", "key": {"[1]": {"settings": "monkeys; cited from earlier work"}, "[2]": {"settings": "mice; cited from earlier work"}, "dystrophin exon 23": {"tested_on": "dystrophin exon 23", "assay": "Exon skipping in differentiated mouse H2K mdx myotubes (nested RT-PCR, densitometry)", "type": "cell-based", "settings": "no transfection agent", "experimental": "The exon skipping potential of Pip6-PMO conjugates was evaluated in differentiated mouse H2K mdx myotubes in the absence of any transfection agent (FIG. 1) at concentrations ranging from 0.125 μM to 1 μM. […] In the case of Pip6 sequences, the flanking arginine-rich sequences are identical (with the exception of Pip6e, which is identical except for one arginine immediately preceding the core which is displaced into the second position of the core). […] Note that we have previously shown that major changes in in vitro exon skipping activities are correlated instead with the total numbers of arginine residues [Saleh, A. F., et al., Synthesis and splice-redirecting activity of branched, arginine-rich peptide dendrimer conjugates of peptide nucleic acid oligonucleotides. Bioconjug Chem, 2010. 21(10): p. 1902-11.].\nH2K mdx myotubes are derived from H2K mdx myoblasts obtained from the EDL muscle of a male H2K mdx f2 mouse. The cells are dystrophin deficient and conditionally immortal due to thermolabile simian virus 40 large tumor antigen (tsA58) expression. The myoblasts proliferate at 33° C. (10% CO2) in rich culture and differentiate into myotubes at 37° C. in media with horse serum.\nH2K mdx myotubes were prepared and incubated with peptide-PNA and peptide-PMO conjugates in the absence of any transfection agent by the methods described previously (Wang, Q, Yin, H, et aL (2010) In vitro evaluation of novel antisense oligonucleotides is predictive of in vivo exon skipping activity for Duchenne muscular dystrophy) but with minor variations.\nMyotubes were obtained from confluent H2K mdx cells seeded in gelatine coated 24-well plates following 2 days of serum deprivation (DMEM with 5% horse serum). The conjugates were incubated with myotubes for 4 h in 0.5 mL OptiMEM and then replaced by 1 mL of DMEM/5% horse serum media for further incubation. After 20 h myotubes were washed twice with PBS and total RNA was extracted with 0.5 mL of TRI Reagent (Sigma, UK). RNA preparations were treated with RNAse free DNAse (2U) and Proteinase K ([…]) prior to RT-PCR analysis. RT-PCR was carried out in 25 μL with 1 μg RNA template using SuperScript III One-Step RTPCR System with Platinum Taq DNA polymerase (Invitrogen) primed by forward primer 5′CAG AAT TCT GCC AAT TGC TGAG3′ [SEQ ID NO:312] and reverse primer 5′TTC TTC AGC TTG TGT CAT CC3′ [SEQ ID NO:313]. The initial cDNA synthesis was performed at 55° C. for 30 min followed by 30 cycles of 95° C. for 30 sec, 55° C. for 1 min and 68° C. for 80 sec. RT PCR product ([…]) was then used as the template for secondary PCR performed in 25 μL with 0.5 U Super TAQ polymerase (HT Biotechnologies) and primed by forward primer 5′CCCAGTCTACCACCCTATCAG AGC3′ [SEQ ID NO:314] and reverse primer 5′CCT GCC TTT AAG GCT TCC TT3′ [SEQ ID NO:315]. The cycling conditions were 95° C. for 1 min, 57° C. for 1 min and 72° C. for 80 sec for 25 cycles. Products were examined by 2% agarose gel and after scanning using Gene Tools Analysis Software (SynGene) the relative amount of exon 23 skipping was expressed as a percentage at a given concentration of conjugates averaged over duplicates of three experiments.\nH2K mdx myotubes were prepared and incubated with peptide-PMO conjugates in the absence of any transfection agent at concentrations of 0.125, 0.25, 0.5 and 1.0 μM by the method described previously [Yin, H., et al., Pip5 transduction peptides direct high efficiency oligonucleotide-mediated dystrophin exon skipping in heart and phenotypic correction in mdx mice. Mol Ther, 2011. 19(7): p. 1295-303.]. The products of nested RT-PCR from total isolated RNA were examined by electrophoresis on a 2% agarose gel. Quantification of Δ23 transcript levels was calculated using densitometry. […]"}, "dystrophin [3]": {"tested_on": "dystrophin", "assay": "Immunohistochemical staining and quantification of dystrophin in mdx mice after single IV injection", "type": "in vivo", "settings": "8 week old mdx mice, single 12.5 mg/kg IV, 2 weeks after injection", "source_text": "Given the potency of Pip5e-PMO in heart tissue, the aim of altering the sequence of the hydrophobic core (whilst maintaining the 5-aa length) was to identify peptides that might be more efficient at lower doses. These modifications included inversion of the hydrophobic region (Pip6a), substitution of tyrosine by isoleucine (Pip6b), substitution of glutamine in the Pip6a sequence by displacement of the arginine immediately flanking the core in the first arginine-rich flanking region (Pip6e), and a scrambled hydrophobic core sequence (Pip6f). All Pip6 peptide-PMO conjugates were administered to mdx mice as single 12.5 mg/kg intravenous injections via the tail vein and tissues were harvested 2 weeks later and assessed for activity at both RNA and protein levels.\nImmunohistochemical staining quantification (FIGS. 34a, b) was performed as previously described [Malerba, A., et al., Chronic systemic therapy with low-dose morpholino oligomers ameliorates the pathology and normalizes locomotor behavior in mdx mice. Mol Ther, 2011. 19(2): p. 345-54; Arechavala-Gomeza, V., et al., Immunohistological intensity measurements as a tool to assess sarcolemma-associated protein expression. Neuropathol Appl Neurobiol, 2010. 36(4): p. 265-74.] and was achieved by taking 4 representative frames of the dystrophin staining and correlating this with laminin staining for each section (n=3) of the quadriceps, diaphragm and heart for each peptide-PMO treatment. Untreated mdx and treated mdx mice were normalised to C57BL10 mice. This method allows comparison of the staining intensity of dystrophin at the sarcolemma relative to laminin for each treatment group. Intensity ratios are normalised to C57BL10 samples and each region of interest at the sarcolemma (120 regions for each treatment group) is plotted on a scatter graph. […]\nTransverse sections of tissue samples were cut (8 μm thick) for the examination of dystrophin expression. For dystrophin visualisation and quantification, sections were co-stained with rabbit-anti-dystrophin (Abcam) and rat anti-laminin (Sigma), and detected by goat-anti-rabbit IgG Alexa 594 and goat-anti-rat IgG 488 secondary antibodies respectively (Invitrogen). […] Quantitative immunohistochemistry was performed as previously described [Malerba, A., et al., Chronic systemic therapy with low-dose morpholino oligomers ameliorates the pathology and normalizes locomotor behavior in mdx mice. […] For quantification, 4 representative frames of the dystrophin and correlating laminin were taken for each section (n=3) of the quadriceps, diaphragm and heart for each treatment. […] The minimum and maximum fluorescence intensity for 120 regions were recorded for each treatment. […]"}, "dystrophin [4]": {"tested_on": "dystrophin", "settings": "intramuscular or intravenous delivery in mdx mice; cited from earlier work"}, "[5]": {"settings": "Example 5, conjugate 0.125 to 2.0 μM"}}, "note": "Like-named read-outs stand apart in the source and are kept apart here. Non-standard residues stand in square brackets, D forms with d. No end group written: not given here. Ahx = NCCCCCC(=O)O; βAla = NCCC(=O)O", "data": [{"substance": "Exon-skipping PMO: phosphorodiamidate morpholino oligonucleotide for exon skipping, unconjugated, from cited toxicology studies (GGCCAAACCTCGGCTTACCTGAAAT; all phosphorodiamidate morpholino (PMO))", "values": [{"measurement": "well tolerated dosage", "setting": "[1]", "result": "≤ 320", "unit": "mg/kg"}, {"measurement": "well tolerated dosage", "setting": "[2]", "result": "≤ 960", "unit": "mg/kg"}]}, {"substance": "Pip7d: Pip7 series peptide (SEQ ID NOs:11-16) conjugated to PMODMD (R[Ahx]R[βAla][Ahx]YRFLI[Ahx]R[βAla]R[Ahx]R[βAla]; also: conjugated to PMO (PMODMD), site not given here)", "values": [{"measurement": "exon skipping activity (Δ23 skipping) in mdx muscle cells", "setting": "dystrophin exon 23; conjugate 0.125 to 1 μM", "result": "moderate exon skipping"}]}, {"substance": "Pip8a: Pip8 series peptide (SEQ ID NOs:17-20, parent Pip 6a; 9 Arg) conjugated to PMODMD (R[Ahx]RR[βAla]R[Ahx]RYQFLIR[Ahx]RR[βAla]R[βAla]; also: conjugated to PMO (PMODMD))", "values": [{"measurement": "exon skipping activity (Δ23 skipping) in mdx muscle cells", "setting": "dystrophin exon 23; [5]", "result": "high exon skipping activity"}, {"measurement": "exon skipping activity (Δ23 skipping) in mdx muscle cells", "setting": "dystrophin exon 23; conjugate 0.125 to 1 μM", "result": "high exon skipping activity"}]}, {"substance": "Pip8c2: Pip8 series peptide (SEQ ID NOs:17-20) conjugated to PMODMD (R[Ahx]RR[βAla]RYQFLIRR[βAla]R[βAla]; also: conjugated to PMO (PMODMD))", "values": [{"measurement": "exon skipping activity (Δ23 skipping) in mdx muscle cells", "setting": "dystrophin exon 23; [5]", "result": "high exon skipping activity"}, {"measurement": "dystrophin expression in the heart", "setting": "dystrophin [3]", "result": "negligible dystrophin production"}]}, {"substance": "Pip8d: Pip8 series peptide (SEQ ID NOs:317-319) conjugated to PMODMD (R[Ahx]RR[βAla]RYQFLI[βAla]R[Ahx]R[βAla]; also: conjugated to PMO (PMODMD))", "values": [{"measurement": "exon skipping activity (Δ23 skipping) in mdx muscle cells", "setting": "dystrophin exon 23; [5]", "result": "high exon skipping activity"}]}, {"substance": "Pip9c2: Pip9 series peptide (SEQ ID Nos 320-328) conjugated to PMODMD (R[Ahx]RR[βAla]RRFQILY[βAla]R[Ahx]R[βAla]; also: conjugated to PMO (PMODMD))", "values": [{"measurement": "exon skipping activity (Δ23 skipping) in mdx muscle cells", "setting": "dystrophin exon 23; [5]", "result": "high exon skipping activity"}]}, {"substance": "Pip9c3: Pip9 series peptide (SEQ ID Nos 320-328) conjugated to PMODMD (R[Ahx]RR[βAla]RFQILYRR[βAla]R[βAla]; also: conjugated to PMO (PMODMD))", "values": [{"measurement": "exon skipping activity (Δ23 skipping) in mdx muscle cells", "setting": "dystrophin exon 23; [5]", "result": "high exon skipping activity"}]}, {"substance": "Pip9d: Pip9 series peptide (SEQ ID Nos 320-328) conjugated to PMODMD (R[Ahx]RR[βAla]RFQILY[βAla]R[βAla]R[βAla]; also: conjugated to PMO (PMODMD))", "values": [{"measurement": "exon skipping activity (Δ23 skipping) in mdx muscle cells", "setting": "dystrophin exon 23; [5]", "result": "high exon skipping activity"}, {"measurement": "dystrophin expression in the heart", "setting": "dystrophin [3]", "result": "negligible dystrophin production"}]}, {"substance": "RXRRBRRXRRBRXB (R[Ahx]RR[βAla]RR[Ahx]RR[βAla]R[Ahx][βAla]; also: conjugated to PMO (PMODMD)) [B peptide]", "values": [{"measurement": "exon skipping and dystrophin production compared to naked PMODMD", "setting": "dystrophin [4]", "result": "significantly enhance exon skipping and dystrophin production"}]}]}
